Reference: PubChem BioAssay (NCI)
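How tested: cells in 96-well plates exposed to compound for 48 hours at five concentrations. TGI marks complete inhibition of growth.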

Experiments:
Test in all cases: NCI tumour cell line growth inhibition, 48 h
SK-MEL-2 melanoma = system: SK-MEL-2 melanoma
RPMI-8226 leukemia = system: RPMI-8226 leukemia
HOP-92 NSCLC = system: HOP-92 NSCLC
MDA-MB-231 breast = system: MDA-MB-231 breast
SK-MEL-5 melanoma = system: SK-MEL-5 melanoma
KM12 colon = system: KM12 colon
A549 NSCLC = system: A549 NSCLC
NCI-H226 lung = system: NCI-H226 lung
UACC-62 melanoma = system: UACC-62 melanoma
COLO 205 colon = system: COLO 205 colon
SK-OV-3 ovarian = system: SK-OV-3 ovarian
SN12C renal = system: SN12C renal
SK-MEL-28 melanoma = system: SK-MEL-28 melanoma
NCI/ADR-RES ovarian = system: NCI/ADR-RES ovarian
ACHN renal = system: ACHN renal
DU-145 prostate = system: DU-145 prostate
OVCAR-4 ovarian = system: OVCAR-4 ovarian
SF-268 CNS = system: SF-268 CNS
HCT-15 colon = system: HCT-15 colon
CAKI-1 renal = system: CAKI-1 renal

Compound	TGI (SK-MEL-2 melanoma) [µM]	TGI (RPMI-8226 leukemia) [µM]	TGI (HOP-92 NSCLC) [µM]	TGI (MDA-MB-231 breast) [µM]	TGI (SK-MEL-5 melanoma) [µM]	TGI (KM12 colon) [µM]	TGI (A549 NSCLC) [µM]	TGI (NCI-H226 lung) [µM]	TGI (UACC-62 melanoma) [µM]	TGI (COLO 205 colon) [µM]	TGI (SK-OV-3 ovarian) [µM]	TGI (SN12C renal) [µM]	TGI (SK-MEL-28 melanoma) [µM]	TGI (NCI/ADR-RES ovarian) [µM]	TGI (ACHN renal) [µM]	TGI (DU-145 prostate) [µM]	TGI (OVCAR-4 ovarian) [µM]	TGI (SF-268 CNS) [µM]	TGI (HCT-15 colon) [µM]	TGI (CAKI-1 renal) [µM]
NS(=O)(=O)c1nnc(NS(=O)(=O)c2ccc(Cl)cc2)s1	> 100	> 100	> 100	> 100	> 100	> 100	> 100	> 100	> 100	> 100	> 100	> 100	> 100	> 100	> 100	> 100	> 100	> 100	> 100	> 100
CSc1nc(Br)nc2ncn(C3CC(Oc4ccc(C)cc4)C(COc4ccc(C)cc4)O3)c12 (configuration not stated)	> 100	> 100	> 100	> 100	> 100	> 100	> 100	> 100	> 100	> 100	> 100	> 100	> 100	> 100	> 100	> 100	> 100	> 100	> 100	> 100
O=C(Nc1ncc([N+](=O)[O-])s1)c1ccccc1O	35.6	55	7.98	> 77.5	37.5	68.7	> 87.4	27.1	41.7	36.1	> 100	77.7	> 100	> 82.4	> 84.5	> 89.4	> 100	> 75.1	> 86.9	> 100
CCc1ccc(/C=C/C(=O)C2CN(CC)CCC2(O)/C=C/c2ccc(CC)cc2)cc1 (configuration not stated)	18.7	5.24	5.33	5.07	11.2	3.5	20	20.1	16.2	6.21	25	14.1	3.04	12.4	3.68	21.6	14.7	12	8.27	18.7
O=C(N/N=C/c1ccc(Cl)cc1)c1ccccc1Nc1ccccc1C(=O)N/N=C/c1ccc(Cl)cc1	> 100	> 100	> 100	> 100	> 100	> 100	> 100	> 100	> 100	> 100	> 100	> 100	> 100	> 100	> 100	> 100	> 100	> 100	> 100	> 100
CCCCc1ccc(Nc2nc(Cl)c3ncn(C4CC(Oc5ccc(C)cc5)C(COc5ccc(C)cc5)O4)c3n2)cc1 (configuration not stated)	> 100	> 100	> 100	> 100	> 100	> 100	> 100	> 100	> 100	> 100	> 100	> 100		> 100	> 100	> 100		> 100	> 100	30.9
COC(=O)N/N=C(/c1nc2ccc([N+](=O)[O-])cc2[nH]c1=O)C(O)c1ccc(OC)c(OC)c1 (configuration not stated)	> 100	> 74.5	> 100	> 100	> 78.7	> 100	> 100	> 100	> 100	> 76.9	> 100	> 100	> 100	> 100	> 100	> 100	> 100	> 100	> 78.4	> 100
COc1ccc(Nc2nc3ccc(C(F)(F)F)cc3nc2C(=O)O)cc1	> 100	66.5	92	> 100	> 100	70.9	> 100	> 100	67.3	> 100	71.5	> 100	> 100	> 100		> 100	> 100	> 100	> 100	> 100
CC(=O)N(CCCCNC(=O)C(F)(F)F)CCCNC(=O)C(F)(F)F	> 100	> 100	> 100	> 100	> 100	> 100	> 100	> 100	> 100	> 100	> 100	> 100	> 100	> 100	> 100	> 100	> 100	> 100	> 100	
COc1ccc(/C=C2\N=C(c3ccccc3)OC2=O)cc1OC(C)=O	83.5	> 100	> 100	> 100	> 100		> 100	> 100	> 100	> 100	> 100	> 100	> 100	> 100	> 100	> 100	> 100	> 100	> 100	
COCOc1c(C(OCOC)c2cnc(Sc3ccccc3)n2C)ccc(OC)c1OC (configuration not stated)	> 100	> 100	> 100	> 100	> 100	> 100	> 100	> 100	> 100		> 100	> 100	> 100	> 100	> 100	> 100	> 100	> 100	> 100	> 100
c1ccc2c3nnc(c2c1)SCCCSc1nnc(c2ccccc12)SCCCS3	> 100	> 100	94.3	48.6	72.2	> 100	> 100	56.6	88.8	> 100	> 100	> 100	> 100	86.4	> 100	> 100	54.3	> 100	> 100	
